Experimental data from patent US20240316047A1, “INHIBITORS OF RNA HELICASE DHX9 AND USES THEREOF” (ACCENT THERAPEUTICS, INC., priority 2022, published 2024).

What follows are compounds tested against Human recombinant DHX9 protein (Homo sapiens (Human), UniProt Q08211) (assay: DHX9 ATPase assay (ADP-Glo)). Conditions: not given.
Format: biochemical

Human recombinant DHX9 protein, sequence (Q08211 whole entry): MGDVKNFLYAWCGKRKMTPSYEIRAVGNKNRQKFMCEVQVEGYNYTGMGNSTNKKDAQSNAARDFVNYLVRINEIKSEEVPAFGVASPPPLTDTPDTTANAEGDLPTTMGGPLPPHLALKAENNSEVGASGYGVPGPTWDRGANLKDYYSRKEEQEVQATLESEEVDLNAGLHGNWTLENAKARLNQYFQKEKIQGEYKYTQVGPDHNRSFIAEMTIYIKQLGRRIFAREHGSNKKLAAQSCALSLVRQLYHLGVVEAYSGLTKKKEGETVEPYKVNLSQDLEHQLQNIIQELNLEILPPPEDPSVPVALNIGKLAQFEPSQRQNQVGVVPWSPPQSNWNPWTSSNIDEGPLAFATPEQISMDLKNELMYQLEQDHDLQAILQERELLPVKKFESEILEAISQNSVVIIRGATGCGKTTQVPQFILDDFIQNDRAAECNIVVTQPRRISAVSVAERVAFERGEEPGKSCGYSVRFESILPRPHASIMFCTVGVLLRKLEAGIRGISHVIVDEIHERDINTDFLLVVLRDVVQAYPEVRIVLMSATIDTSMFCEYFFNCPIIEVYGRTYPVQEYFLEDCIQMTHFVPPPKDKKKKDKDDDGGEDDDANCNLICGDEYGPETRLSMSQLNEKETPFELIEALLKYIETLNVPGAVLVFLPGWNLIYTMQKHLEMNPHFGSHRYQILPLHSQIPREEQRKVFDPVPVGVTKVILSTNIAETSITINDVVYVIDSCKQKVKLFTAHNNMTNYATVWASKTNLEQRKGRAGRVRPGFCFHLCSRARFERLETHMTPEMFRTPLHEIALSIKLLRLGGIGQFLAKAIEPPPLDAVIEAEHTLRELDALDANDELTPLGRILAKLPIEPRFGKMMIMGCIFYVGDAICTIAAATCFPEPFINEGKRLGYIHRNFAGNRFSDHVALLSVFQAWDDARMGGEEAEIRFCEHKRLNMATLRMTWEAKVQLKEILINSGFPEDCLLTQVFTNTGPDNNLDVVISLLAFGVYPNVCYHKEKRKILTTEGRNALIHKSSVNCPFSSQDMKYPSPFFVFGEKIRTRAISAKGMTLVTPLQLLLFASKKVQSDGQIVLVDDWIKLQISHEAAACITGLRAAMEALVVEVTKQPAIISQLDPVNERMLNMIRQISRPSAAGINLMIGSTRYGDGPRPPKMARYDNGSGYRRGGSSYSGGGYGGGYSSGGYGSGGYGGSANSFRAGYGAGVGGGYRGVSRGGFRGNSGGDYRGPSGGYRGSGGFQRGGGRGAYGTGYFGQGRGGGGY

Compound | DHX9 Biochemical Max Inhibition
CCS(=O)(=O)Nc1cc(Cl)cc(NC(=O)c2cc(-c3ncc(F)cn3)cs2)c1 [Example 343] | 54.4%
CCS(=O)(=O)Nc1cc(Cl)cc(NC(=O)c2cc(-c3ncc(F)cn3)c(C)s2)c1 [Example 344] | 74.1%
Cc1sc(C(=O)Nc2cc(Cl)cc(NS(C)(=O)=O)c2)cc1-c1ncc(OC(F)F)cn1 [Example 345] | 77.1%
CCS(=O)(=O)Nc1cc(Cl)cc(NC(=O)c2cc(-c3ccc(F)cn3)c(C)s2)c1 [Example 346] | 73%
CCS(=O)(=O)Nc1cc(Cl)cc(NC(=O)c2cc(-c3ncc(F)cc3F)c(C)s2)c1 [Example 347] | 72.1%
Cc1cc(F)cnc1-c1cc(C(=O)Nc2cc(Cl)cc(NS(C)(=O)=O)c2)sc1C [Example 348] | 74.6%
Cc1sc(C(=O)Nc2cc(Cl)cc(NS(C)(=O)=O)c2)cc1-c1ncc(F)cc1F [Example 349] | 76.4%
CCS(=O)(=O)Nc1cc(Cl)cc(NC(=O)c2cc(-c3ncc(F)cc3C)c(C)s2)c1 [Example 350] | 67.1%
COc1cc(F)cnc1-c1cc(C(=O)Nc2cc(Cl)cc(NS(C)(=O)=O)c2)sc1C [Example 351] | 80.6%
COc1ccc(-c2cc(C(=O)Nc3cc(Cl)cc(NS(C)(=O)=O)c3)sc2C)nc1 [Example 352] | 84.1%
CCS(=O)(=O)Nc1cc(Cl)cc(NC(=O)c2cc(-c3ncc(OC)cn3)c(C)s2)c1 [Example 353] | 69.2%
CCS(=O)(=O)Nc1cc(Cl)cc(NC(=O)c2cc(-c3ncc(F)cc3OC)c(C)s2)c1 [Example 354] | 75.5%
CCS(=O)(=O)Nc1cc(Cl)cc(NC(=O)c2cc(-c3ncc(F)cc3Cl)c(C)s2)c1 [Example 355] | 69.9%
Cc1sc(C(=O)Nc2cc(Cl)cc(NS(C)(=O)=O)c2)cc1-c1ncc(C(F)(F)F)cn1 [Example 357] | 91.7%
COc1cnc(-c2cc(C(=O)Nc3cc(Cl)cc(NS(C)(=O)=O)c3)sc2C)c(F)c1 [Example 358] | 84.3%
Cc1sc(C(=O)Nc2cc(Cl)cc(NS(C)(=O)=O)c2)cc1-c1ncc(F)cc1Cl [Example 359] | 68.3%
CCS(=O)(=O)Nc1cc(Cl)cc(NC(=O)c2cc(-c3ncc(OC)cc3F)c(C)s2)c1 [Example 360] | 56.5%
COc1cnc(-c2cc(C(=O)Nc3cc(Cl)cc(NS(C)(=O)=O)c3)sc2C)c(C)c1 [Example 361] | 88.8%
Cc1sc(C(=O)Nc2cc(Cl)cc(NS(C)(=O)=O)c2)cc1-c1c(F)cncc1F [Example 362] | 88.6%
Cn1cc(C(=O)Nc2cc(Cl)cc(NS(C)(=O)=O)c2)cc1-c1ncc(F)cc1OC(F)F [Example 363] | 94.3%
COc1cnc(-c2cc(C(=O)Nc3cc(Cl)cc(NS(C)(=O)=O)c3)sc2C)c(Cl)c1 [Example 364] | 79.8%
CCOc1cnc(-c2cc(C(=O)Nc3cc(Cl)cc(NS(=O)(=O)CC)c3)sc2C)nc1 [Example 365] | 78.7%
CCS(=O)(=O)Nc1cc(Cl)cc(NC(=O)c2cc(-c3ncc(C(F)(F)F)cn3)c(C)s2)c1 [Example 366] | 76.2%
Cc1sc(C(=O)Nc2cc(Cl)cc(NS(C)(=O)=O)c2)cc1-c1ncc(C(F)(F)F)cc1C#N [Example 367] | 63.5%
Cc1sc(C(=O)Nc2cc(Cl)cc(NS(C)(=O)=O)c2)cc1-c1ncc(C(F)(F)F)cc1F [Example 368] | 67.3%
CS(=O)(=O)Nc1cc(Cl)cc(NC(=O)c2cc(-c3ncc(C(F)(F)F)cn3)cs2)c1 [Example 369] | 61.5%
CS(=O)(=O)Nc1cc(Cl)cc(NC(=O)c2cc(-c3ccc(C(F)(F)F)cn3)cs2)c1 [Example 370] | 64.3%

Compound | DHX9 Biochemical Max Inhibition
CS(=O)(=O)Nc1cc(Cl)cc(NC(=O)c2cc(-c3ncc(C(F)(F)F)cc3F)cs2)c1 [Example 371] | 65.3%
CCCS(=O)(=O)Nc1cc(Cl)cc(NC(=O)c2cc(-c3ncccc3C)cs2)c1 [Example 372] | 49.2%
Cc1cccnc1-c1csc(C(=O)Nc2cc(Cl)cc(NS(=O)(=O)C(C)C)c2)c1 [Example 373] | 49.9%
Cc1cccnc1-c1csc(C(=O)Nc2cc(Cl)cc(N(C)S(C)(=O)=O)c2)c1 [Example 374] | 60%
Cc1sc(C(=O)Nc2cc(Cl)cc(NS(C)(=O)=O)c2)cc1-c1ncc(C#N)cc1F [Example 375] | 64.6%
Cc1cc(C#N)cnc1-c1cc(C(=O)Nc2cc(Cl)cc(NS(C)(=O)=O)c2)sc1C [Example 376] | 64.1%
Cc1sc(C(=O)Nc2cc(Cl)cc(NS(C)(=O)=O)c2)cc1-c1ccc(C#N)cn1 [Example 377] | 70.6%
Cc1sc(C(=O)Nc2cc(Cl)cc(NS(C)(=O)=O)c2)cc1-c1c(F)cc(F)cc1F [Example 378] | 80.9%
CC(C)(C)Oc1cnc(-c2csc(C(=O)Nc3cc(Cl)cc(NS(C)(=O)=O)c3)c2)nc1 [Example 379] | 65.4%
Cc1sc(C(=O)Nc2cc(Cl)cc(NS(C)(=O)=O)c2)cc1-c1ccc(OC(C)(C)C)cn1 [Example 380] | 68.7%
Cc1sc(C(=O)Nc2cc(Cl)cc(NS(C)(=O)=O)c2)cc1-c1ncc(OC(C)(C)C)cc1F [Example 381] | 67.4%
CS(=O)(=O)Nc1cc(Cl)cc(NC(=O)c2cc(-c3ncccc3CC(=O)N3CCC3)cs2)c1 [Example 382] | 75.9%
CS(=O)(=O)Nc1cc(Cl)cc(NC(=O)c2cc(-c3ncccc3CC(=O)N3CCCC3)cs2)c1 [Example 383] | 78.3%
CS(=O)(=O)Nc1cc(Cl)cc(NC(=O)c2cc(-c3ncccc3Cc3ncccn3)cs2)c1 [Example 384] | 75.5%
Cc1sc(C(=O)Nc2cc(Cl)cc(NS(C)(=O)=O)c2)cc1-c1ncccc1CC(=O)N(C)C [Example 385] | 78.1%
Cc1cccnc1-c1ccc(C(=O)Nc2cc(Cl)cc(NS(C)(=O)=O)c2)s1 [Example 386] | 59.2%
CS(=O)(=O)Nc1cc(Cl)cc(NC(=O)c2cnn(-c3ncccc3-c3cncnc3)c2)c1 [Example 387] | 58.2%
CS(=O)(=O)Nc1cc(Cl)cc(NC(=O)c2cnn(-c3cnc(N4CCOCC4)cn3)c2)c1 [Example 388] | 52.8%
Cc1cc(C(=O)Nc2cc(Cl)cc(NS(C)(=O)=O)c2)cn1-c1ccc(Cl)cn1 [Example 389] | 82.3%
Cc1cc(C(=O)Nc2cc(Cl)cc(NS(C)(=O)=O)c2)cn1-c1ccc(F)cn1 [Example 390] | 80.4%
COc1ccc(-n2cc(C(=O)Nc3cc(Cl)cc(NS(C)(=O)=O)c3)cc2C)nc1 [Example 391] | 78.5
CS(=O)(=O)Nc1cc(Cl)cc(NC(=O)c2cnn(-c3ncccc3-c3cncc(F)c3)c2)c1 [Example 392] | 79.3
COc1cc(F)cnc1-n1cc(C(=O)Nc2cc(Cl)cc(NS(C)(=O)=O)c2)cc1C [Example 393] | 77
CS(=O)(=O)Nc1cc(Cl)cc(NC(=O)c2cnn(-c3ncc(N4CCOCC4)cn3)c2)c1 [Example 394] | 73.7
Cc1cc(C(=O)Nc2cc(Cl)cc(NS(C)(=O)=O)c2)cn1-c1ccc(N2CC(F)C2)cn1 [Example 395] | 77.1
Cc1cc(C(=O)Nc2cc(Cl)cc(NS(C)(=O)=O)c2)cn1-c1ccc(N2CCC(F)(F)C2)cn1 [Example 396] | 68.9

Same assay, conditions: read-out: DHX9 Biochemical Inflection Point

Compound | IC50 [nM]
CCS(=O)(=O)Nc1cc(Cl)cc(NC(=O)c2cc(-c3ncc(F)cn3)cs2)c1 [Example 343] | 55.2
CCS(=O)(=O)Nc1cc(Cl)cc(NC(=O)c2cc(-c3ncc(F)cn3)c(C)s2)c1 [Example 344] | 21
Cc1sc(C(=O)Nc2cc(Cl)cc(NS(C)(=O)=O)c2)cc1-c1ncc(OC(F)F)cn1 [Example 345] | 33.6
CCS(=O)(=O)Nc1cc(Cl)cc(NC(=O)c2cc(-c3ccc(F)cn3)c(C)s2)c1 [Example 346] | 25.7
CCS(=O)(=O)Nc1cc(Cl)cc(NC(=O)c2cc(-c3ncc(F)cc3F)c(C)s2)c1 [Example 347] | 34
Cc1cc(F)cnc1-c1cc(C(=O)Nc2cc(Cl)cc(NS(C)(=O)=O)c2)sc1C [Example 348] | 31.8
Cc1sc(C(=O)Nc2cc(Cl)cc(NS(C)(=O)=O)c2)cc1-c1ncc(F)cc1F [Example 349] | 23.7
COc1cc(F)cnc1-c1cc(C(=O)Nc2cc(Cl)cc(NS(C)(=O)=O)c2)sc1C [Example 351] | 15.5
CCS(=O)(=O)Nc1cc(Cl)cc(NC(=O)c2cc(-c3ncc(OC)cn3)c(C)s2)c1 [Example 353] | 24.2
CCS(=O)(=O)Nc1cc(Cl)cc(NC(=O)c2cc(-c3ncc(F)cc3OC)c(C)s2)c1 [Example 354] | 13.4
CCS(=O)(=O)Nc1cc(Cl)cc(NC(=O)c2cc(-c3ncc(F)cc3Cl)c(C)s2)c1 [Example 355] | 34.1
Cc1sc(C(=O)Nc2cc(Cl)cc(NS(C)(=O)=O)c2)cc1-c1ncc(C(F)(F)F)cn1 [Example 357] | 85.6
COc1cnc(-c2cc(C(=O)Nc3cc(Cl)cc(NS(C)(=O)=O)c3)sc2C)c(F)c1 [Example 358] | 38.4
Cc1sc(C(=O)Nc2cc(Cl)cc(NS(C)(=O)=O)c2)cc1-c1ncc(F)cc1Cl [Example 359] | 54.9
CCS(=O)(=O)Nc1cc(Cl)cc(NC(=O)c2cc(-c3ncc(OC)cc3F)c(C)s2)c1 [Example 360] | 40.9
Cc1sc(C(=O)Nc2cc(Cl)cc(NS(C)(=O)=O)c2)cc1-c1c(F)cncc1F [Example 362] | 44.3
Cn1cc(C(=O)Nc2cc(Cl)cc(NS(C)(=O)=O)c2)cc1-c1ncc(F)cc1OC(F)F [Example 363] | 25.2
COc1cnc(-c2cc(C(=O)Nc3cc(Cl)cc(NS(C)(=O)=O)c3)sc2C)c(Cl)c1 [Example 364] | 15.6
CCOc1cnc(-c2cc(C(=O)Nc3cc(Cl)cc(NS(=O)(=O)CC)c3)sc2C)nc1 [Example 365] | 20.5
CCS(=O)(=O)Nc1cc(Cl)cc(NC(=O)c2cc(-c3ncc(C(F)(F)F)cn3)c(C)s2)c1 [Example 366] | 46.7
Cc1sc(C(=O)Nc2cc(Cl)cc(NS(C)(=O)=O)c2)cc1-c1ncc(C(F)(F)F)cc1C#N [Example 367] | 55.9
Cc1sc(C(=O)Nc2cc(Cl)cc(NS(C)(=O)=O)c2)cc1-c1ncc(C(F)(F)F)cc1F [Example 368] | 118
CS(=O)(=O)Nc1cc(Cl)cc(NC(=O)c2cc(-c3ncc(C(F)(F)F)cn3)cs2)c1 [Example 369] | 57.6

Compound | IC50 [nM]
CS(=O)(=O)Nc1cc(Cl)cc(NC(=O)c2cc(-c3ncc(C(F)(F)F)cc3F)cs2)c1 [Example 371] | 140
CCCS(=O)(=O)Nc1cc(Cl)cc(NC(=O)c2cc(-c3ncccc3C)cs2)c1 [Example 372] | 402
Cc1cccnc1-c1csc(C(=O)Nc2cc(Cl)cc(N(C)S(C)(=O)=O)c2)c1 [Example 374] | 579
Cc1sc(C(=O)Nc2cc(Cl)cc(NS(C)(=O)=O)c2)cc1-c1ncc(C#N)cc1F [Example 375] | 34.6
Cc1sc(C(=O)Nc2cc(Cl)cc(NS(C)(=O)=O)c2)cc1-c1ccc(C#N)cn1 [Example 377] | 21.2
Cc1sc(C(=O)Nc2cc(Cl)cc(NS(C)(=O)=O)c2)cc1-c1c(F)cc(F)cc1F [Example 378] | 874
CC(C)(C)Oc1cnc(-c2csc(C(=O)Nc3cc(Cl)cc(NS(C)(=O)=O)c3)c2)nc1 [Example 379] | 41.8
Cc1sc(C(=O)Nc2cc(Cl)cc(NS(C)(=O)=O)c2)cc1-c1ccc(OC(C)(C)C)cn1 [Example 380] | 33.5
CS(=O)(=O)Nc1cc(Cl)cc(NC(=O)c2cc(-c3ncccc3CC(=O)N3CCCC3)cs2)c1 [Example 383] | 10.1
CS(=O)(=O)Nc1cc(Cl)cc(NC(=O)c2cc(-c3ncccc3Cc3ncccn3)cs2)c1 [Example 384] | 39
Cc1sc(C(=O)Nc2cc(Cl)cc(NS(C)(=O)=O)c2)cc1-c1ncccc1CC(=O)N(C)C [Example 385] | 83.8
Cc1cccnc1-c1ccc(C(=O)Nc2cc(Cl)cc(NS(C)(=O)=O)c2)s1 [Example 386] | 420
CS(=O)(=O)Nc1cc(Cl)cc(NC(=O)c2cnn(-c3ncccc3-c3cncnc3)c2)c1 [Example 387] | 186
CS(=O)(=O)Nc1cc(Cl)cc(NC(=O)c2cnn(-c3cnc(N4CCOCC4)cn3)c2)c1 [Example 388] | 381
Cc1cc(C(=O)Nc2cc(Cl)cc(NS(C)(=O)=O)c2)cn1-c1ccc(Cl)cn1 [Example 389] | 19.5
Cc1cc(C(=O)Nc2cc(Cl)cc(NS(C)(=O)=O)c2)cn1-c1ccc(F)cn1 [Example 390] | 1.5
COc1ccc(-n2cc(C(=O)Nc3cc(Cl)cc(NS(C)(=O)=O)c3)cc2C)nc1 [Example 391] | 8.9
CS(=O)(=O)Nc1cc(Cl)cc(NC(=O)c2cnn(-c3ncccc3-c3cncc(F)c3)c2)c1 [Example 392] | 2.9
COc1cc(F)cnc1-n1cc(C(=O)Nc2cc(Cl)cc(NS(C)(=O)=O)c2)cc1C [Example 393] | 2.3
CS(=O)(=O)Nc1cc(Cl)cc(NC(=O)c2cnn(-c3ncc(N4CCOCC4)cn3)c2)c1 [Example 394] | 24.8
Cc1cc(C(=O)Nc2cc(Cl)cc(NS(C)(=O)=O)c2)cn1-c1ccc(N2CC(F)C2)cn1 [Example 395] | 6.6
Cc1cc(C(=O)Nc2cc(Cl)cc(NS(C)(=O)=O)c2)cn1-c1ccc(N2CCC(F)(F)C2)cn1 [Example 396] | 3.6
